# Assay results: patent US20040082635A1, “Fused cyclic compounds and medicinal use thereof” (priority 2001, published 2004)
# pIC50: −log10 of the molar value. Where a name gives a salt, the structure may show the parent alone.
# Molecular target: T1, HCV polymerase (Hepatitis C virus genotype 1b, UniProt P26663)
# T1 construct: a region encoding NS5B (591 amino acids; J Virol 1991 Mar, 65(3), 1105-13) was amplified by PCR; 6 His (N); made in house; host or cells: Escherichia coli
# Experiment: biochemical
# Conditions: HCV polymerase inhibitory activity IC50
# T1 sequence (P26663 2420-3010): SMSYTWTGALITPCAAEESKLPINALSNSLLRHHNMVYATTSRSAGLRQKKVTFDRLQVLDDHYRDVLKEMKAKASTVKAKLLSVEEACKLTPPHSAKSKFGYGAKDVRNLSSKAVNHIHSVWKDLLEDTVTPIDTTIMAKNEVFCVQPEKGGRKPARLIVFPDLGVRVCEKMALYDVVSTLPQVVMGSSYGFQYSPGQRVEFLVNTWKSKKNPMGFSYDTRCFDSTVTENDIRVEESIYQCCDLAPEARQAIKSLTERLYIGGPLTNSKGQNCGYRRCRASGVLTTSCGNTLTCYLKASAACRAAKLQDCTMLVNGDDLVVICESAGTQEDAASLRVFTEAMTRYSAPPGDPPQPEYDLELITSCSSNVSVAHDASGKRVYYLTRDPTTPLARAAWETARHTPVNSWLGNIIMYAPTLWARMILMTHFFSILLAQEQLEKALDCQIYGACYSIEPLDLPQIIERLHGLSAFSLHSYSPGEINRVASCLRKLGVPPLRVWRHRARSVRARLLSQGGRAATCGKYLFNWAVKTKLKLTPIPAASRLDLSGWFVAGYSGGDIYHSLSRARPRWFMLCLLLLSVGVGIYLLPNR
row,SMILES,pIC50
1,"O=C1CCN(C(=O)c2ccc(-c3ccc(Cl)cc3)c(COc3ccc(-c4nc5cc(C(=O)O)ccc5n4C4CCCCC4)cc3)c2)CC1 [Example 328, 2-{4-[2-(4-chlorophenyl)-5-(4-oxopiperidinocarbonyl)-benzyloxy]phenyl}-1-cyclohexylbenzimidazole-5-carboxylic acid hydrochloride]",7.82

# Same assay, conditions: read-out: HCV polymerase inhibitory activity IC50
row,SMILES,pIC50
1,"O=C(O)c1ccc2c(c1)nc(-c1ccc(OCc3cc(C(=O)NCC4CCCCC4)ccc3-c3ccc(Cl)cc3)cc1)n2C1CCCCC1 [Example 317, 2-{4-[2-(4-chlorophenyl)-5-(cyclohexylmethylcarbamoyl)-benzyloxy]phenyl}-1-cyclohexylbenzimidazole-5-carboxylic acid hydrochloride]",7.49
2,"O=C(O)c1ccc2c(c1)nc(-c1ccc(OCc3cc(C(=O)NCc4ccncc4)ccc3-c3ccc(Cl)cc3)cc1)n2C1CCCCC1 [Example 318, 2-{4-[2-(4-chlorophenyl)-5-(4-pyridylmethylcarbamoyl)-benzyloxy]phenyl}-1-cyclohexylbenzimidazole-5-carboxylic acid dihydrochloride]",7.92
3,"CN(Cc1ccccc1)C(=O)c1ccc(-c2ccc(Cl)cc2)c(COc2ccc(-c3nc4cc(C(=O)O)ccc4n3C3CCCCC3)cc2)c1 [Example 319, 2-{4-[2-(4-chlorophenyl)-5-(N-benzyl-N-methylcarbamoyl)-benzyloxy]phenyl}-1-cyclohexylbenzimidazole-5-carboxylic acid hydrochloride]",7.52
4,"CN(C)C(=O)c1ccc(-c2ccncc2)c(COc2ccc(-c3nc4cc(C(=O)O)ccc4n3C3CCCCC3)cc2)c1 [Example 320, 2-{4-[5-dimethylaminocarbonyl-2-(4-pyridyl)benzyloxy]phenyl}-1-cyclohexylbenzimidazole-5-carboxylic acid dihydrochloride]",7.44
5,"CN1CCN(C(=O)c2ccc(-c3ccc(Cl)cc3)c(COc3ccc(-c4nc5cc(C(=O)O)ccc5n4C4CCCCC4)cc3)c2)CC1 [Example 321, 2-{4-[2-(4-chlorophenyl)-5-(4-methylpiperazin-1-ylcarbonyl)benzyloxy]phenyl}-1-cyclohexylbenzimidazole-5-carboxylic acid dihydrochloride]",7.82
6,"O=C(O)c1ccc2c(c1)nc(-c1ccc(OCc3cc(C(=O)NCc4cccnc4)ccc3-c3ccc(Cl)cc3)cc1)n2C1CCCCC1 [Example 322, 2-{4-[2-(4-chlorophenyl)-5-{N-(3-pyridylmethyl)carbamoyl}-benzyloxy]phenyl}-1-cyclohexylbenzimidazole-5-carboxylic acid dihydrochloride]",7.80
7,"O=C(O)c1ccc2c(c1)nc(-c1ccc(OCc3cc(C(=O)NCc4ccccn4)ccc3-c3ccc(Cl)cc3)cc1)n2C1CCCCC1 [Example 323, 2-{4-[2-(4-chlorophenyl)-5-{N-(2-pyridylmethyl)carbamoyl}-benzyloxy]phenyl}-1-cyclohexylbenzimidazole-5-carboxylic acid dihydrochloride]",7.74
8,"O=C(O)c1ccc2c(c1)nc(-c1ccc(OCc3cc(C(=O)NC4CCCCC4)ccc3-c3ccc(Cl)cc3)cc1)n2C1CCCCC1 [Example 324, 2-{4-[2-(4-chlorophenyl)-5-(cyclohexylcarbamoyl)benzyloxy]-phenyl}-1-cyclohexylbenzimidazole-5-carboxylic acid hydrochloride]",7.57
9,"O=C(O)c1ccc2c(c1)nc(-c1ccc(OCc3cc(C(=O)NCCc4ccncc4)ccc3-c3ccc(Cl)cc3)cc1)n2C1CCCCC1 [Example 325, 2-{4-[2-(4-chlorophenyl)-5-(2-pyridin-4-ylethylcarbamoyl)-benzyloxy]phenyl}-1-cyclohexylbenzimidazole-5-carboxylic acid dihydrochloride]",7.72
10,"CN(C)C(=O)c1ccc(C(Oc2ccc(-c3nc4cc(C(=O)O)ccc4n3C3CCCCC3)c(F)c2)c2ccc(F)cc2)cc1 (centres unmarked) [Example 326, 2-{4-[(4-fluorophenyl){4-(dimethylaminocarbonyl)phenyl}methoxy]-2-fluorophenyl}-1-cyclohexylbenzimidazole-5-carboxylic acid]",7.74
11,"O=C(O)c1ccc(C(Oc2ccc(-c3nc4cc(C(=O)O)ccc4n3C3CCCCC3)c(F)c2)c2ccc(F)cc2)cc1 (centres unmarked) [Example 327, 2-{4-[(4-fluorophenyl)(4-carboxyphenyl)methoxy]-2-fluorophenyl}-1-cyclohexylbenzimidazole-5-carboxylic acid]",7.72
12,"O=C(O)c1ccc2c(c1)nc(-c1ccc(OCc3cc(O)ccc3-c3ccc(Cl)cc3)cc1)n2C1CCCCC1 [Example 329, 2-{4-[2-(4-chlorophenyl)-5-hydroxybenzyloxy]phenyl}-1-cyclohexylbenzimidazole-5-carboxylic acid hydrochloride]",7.33
13,"CC(C)NC(=O)c1ccc(-c2ccc(Cl)cc2)c(COc2ccc(-c3nc4cc(C(=O)O)ccc4n3C3CCCCC3)cc2)c1 [Example 330, 2-{4-[2-(4-chlorophenyl)-5-(isopropylcarbamoyl)benzyloxy]phenyl}-1-cyclohexylbenzimidazole-5-carboxylic acid hydrochloride]",7.96
14,"CC(C)N(C)C(=O)c1ccc(-c2ccc(Cl)cc2)c(COc2ccc(-c3nc4cc(C(=O)O)ccc4n3C3CCCCC3)cc2)c1 [Example 331, 2-{4-[2-(4-chlorophenyl)-5-(N-isopropyl-N-methylcarbamoyl)-benzyloxy]phenyl}-1-cyclohexylbenzimidazole-5-carboxylic acid hydrochloride]",7.77
15,"O=C(O)c1ccc2c(c1)nc(-c1ccc(OCc3cc(C(=O)Nc4ccccc4)ccc3-c3ccc(Cl)cc3)cc1)n2C1CCCCC1 [Example 332, 2-{4-[2-(4-chlorophenyl)-5-(phenylcarbamoyl)benzyloxy]phenyl}-1-cyclohexylbenzimidazole-5-carboxylic acid hydrochloride]",7.64
16,"COC1CCN(C(=O)c2ccc(-c3ccc(Cl)cc3)c(COc3ccc(-c4nc5cc(C(=O)O)ccc5n4C4CCCCC4)cc3)c2)CC1 [Example 333, 2-{4-[2-(4-chlorophenyl)-5-(4-methoxypiperidinocarbonyl)-benzyloxy]phenyl}-1-cyclohexylbenzimidazole-5-carboxylic acid hydrochloride]",7.80
17,"O=C(O)c1ccc2c(c1)nc(-c1ccc(OCc3cc(OCCCO)ccc3-c3ccc(Cl)cc3)cc1)n2C1CCCCC1 [Example 334, 2-{4-[2-(4-chlorophenyl)-5-(3-hydroxypropyloxy)benzyloxy]phenyl}-1-cyclohexylbenzimidazole-5-carboxylic acid]",7.80
18,"O=C(O)c1ccc2c(c1)nc(-c1ccc(OCc3cc(OCCO)ccc3-c3ccc(Cl)cc3)cc1)n2C1CCCCC1 [Example 335, 2-{4-[2-(4-chlorophenyl)-5-(2-hydroxyethoxy)benzyloxy]phenyl}-1-cyclohexylbenzimidazole-5-carboxylic acid hydrochloride]",7.89
19,"CC1CCN(C(=O)c2ccc(-c3ccc(Cl)cc3)c(COc3ccc(-c4nc5cc(C(=O)O)ccc5n4C4CCCCC4)cc3)c2)CC1 [Example 341, 2-{4-[2-(4-chlorophenyl)-5-(4-methylpiperidin-1-ylcarbonyl)benzyloxy]phenyl}-1-cyclohexylbenzimidazole-5-carboxylic acid hydrochloride]",7.60
20,"CC(=O)c1ccc(-c2ccc(Cl)cc2)c(COc2ccc(-c3nc4cc(C(=O)O)ccc4n3C3CCCCC3)cc2)c1 [Example 342, 2-{4-[5-acetyl-2-(4-chlorophenyl)benzyloxy]phenyl}-1-cyclohexylbenzimidazole-5-carboxylic acid hydrochloride]",7.82
21,O=C(O)c1ccc2c(c1)nc(-c1ccc(OCc3cc(OCC(=O)N4CCC(O)CC4)ccc3-c3ccc(Cl)cc3)cc1)n2C1CCCCC1 [Example 343],7.77
22,"COCCOc1ccc(-c2ccc(Cl)cc2)c(COc2ccc(-c3nc4cc(C(=O)O)ccc4n3C3CCCCC3)cc2)c1 [Example 344, 2-{4-[2-(4-chlorophenyl)-5-(2-methoxyethoxy)benzyloxy]phenyl}-1-cyclohexylbenzimidazole-5-carboxylic acid hydrochloride]",7.80
23,"COCCOCCOc1ccc(-c2ccc(Cl)cc2)c(COc2ccc(-c3nc4cc(C(=O)O)ccc4n3C3CCCCC3)cc2)c1 [Example 345, 2-{4-[2-(4-chlorophenyl)-5-{2-(2-methoxyethoxy)ethoxy}-benzyloxy]phenyl}-1-cyclohexylbenzimidazole-5-carboxylic acid hydrochloride]",7.92
24,"CC(C)CC(=O)c1ccc(-c2ccc(Cl)cc2)c(COc2ccc(-c3nc4cc(C(=O)O)ccc4n3C3CCCCC3)cc2)c1 [Example 346, 2-{4-[2-(4-chlorophenyl)-5-(isobutylcarbonyl)benzyloxy]phenyl}-1-cyclohexylbenzimidazole-5-carboxylic acid]",7.60
25,"Cc1nc(-c2ccc(-c3ccc(Cl)cc3)c(COc3ccc(-c4nc5cc(C(=O)O)ccc5n4C4CCCCC4)cc3)c2)cs1 [Example 347, 2-{4-[2-(4-chlorophenyl)-5-(2-methylthiazol-4-yl)benzyloxy]-phenyl}-1-cyclohexylbenzimidazole-5-carboxylic acid]",7.66
26,"Cc1noc(-c2ccc(-c3ccc(Cl)cc3)c(COc3ccc(-c4nc5cc(C(=O)O)ccc5n4C4CCCCC4)cc3)c2)n1 [Example 349, 2-{4-[2-(4-chlorophenyl)-5-(3-methyl-1,2,4-oxadiazol-5-yl)benzyloxy]phenyl}-1-cyclohexylbenzimidazole-5-carboxylic acid hydrochloride]",7.68
27,"CC(C)NC(=O)c1ccc(COc2ccc(-c3nc4cc(C(=O)O)ccc4n3C3CCCCC3)cc2)c(-c2ccc(Cl)cc2)c1 [Example 350, 2-{4-[2-(4-chlorophenyl)-4-(isopropylcarbamoyl)benzyloxy]phenyl}-1-cyclohexylbenzimidazole-5-carboxylic acid hydrochloride]",7.70
28,"O=C(O)c1ccc2c(c1)nc(-c1ccc(OCc3ccc(C(=O)N4CCCCC4)cc3-c3ccc(Cl)cc3)cc1)n2C1CCCCC1 [Example 351, 2-{4-[2-(4-chlorophenyl)-4-(piperidinocarbonyl)benzyloxy]phenyl}-1-cyclohexylbenzimidazole-5-carboxylic acid hydrochloride]",7.72
